According to patent publication US20070142462A1, “Method of Treating Cancer” (The University of Utah, priority 2000, published 2007):

Experiments:
Assay type in all cases: cell-based, human
[1] = system: M1619 melanoma cells; experiment: MTT proliferation assay, M1619 melanoma; conditions: for Proliferation of M1619 melanoma cells (MTT, A540): 10% FBS, agents added at plating, 48 hours (ebselen 72 hours)
Description: Measurement of Proliferation in Cell Cultures. Proliferation of cultured cells was quantitated using a previously reported calorimetric method based upon metabolic reduction of the soluble yellow tetrazolium dye 3-[4,5-dimethylthiazol]-2yl-2,5-diphenyl tetrazolium bromide (MTT) to its insoluble purple formazan by the action of mitochondrial succinyl dehydrogenase. […] This assay empirically distinguishes between dead and living cells. For proliferation studies, cells were seeded into 24-well uncoated plastic plates (Costar) at 15,000-50,000 cells per well and cultured with respective media and mitogens. After 24-96 hours, medium was removed, cells were washed twice with 1 ml of sterile Dulbecco's modified phosphate buffered saline without Ca^2+ or Mg^2+ (DPBS), the medium was replaced with 1 ml/well fresh medium containing 100 μg/ml MTT, and plates were incubated an additional hour. MTT-containing medium was removed, 0.5 ml dimethylsulfoxide (DMSO) was added to each well, and the absorbance of the solubilized purple formazan dye was measured at 540 nm. A total of 4-6 wells was studied at each treatment condition. Preliminary studies were performed with 50-200 μg/ml MTT incubated for 15 min to 3 hours to determine the optimum concentration and incubation time at which the rate of conversion was linear and proportional to the number of cells present.
(§1) Cell Culture Treatments. The effect of antioxidant treatments on proliferation of malignant cell lines was studied in cultures stimulated with 10% FBS. Cell numbers were quantitated by the MTT assay 24-72 hours later. In some experiments, antioxidants were added immediately after cells were plated. In other experiments, cells were plated and allowed to grow for 24 hours before fresh media with antioxidants was added, and cell numbers were studied by the MTT assay 48 hours later.
A. M1619 melanoma cells stimulated with 10% fetal bovine serum (FBS) were plated at a density of 50,000 cells per well and antioxidants were added to wells at the indicated concentrations (mM or U/ml). After 48 hours, proliferation was quantitated by assessing the cell number-dependent reduction of the soluble yellow tetrazolium dye 3-[4,5-dimethylthiazol]-2yl-2,5-diphenyl tetrazolium bromide (MTT) to its insoluble formazan, measured as the absorbance at 540 nm (A540). The antioxidants tested included no antioxidant (control, i.e., FBS alone), 1000 U/ml SOD, 20 mM NAC, 500 U/ml, 1000 U/ml, and 3000 U/ml of catalase, and boiled […] catalase.
B. In a separate experiment, 2 μl/well of DMSO (served as control), 5 μM, 10 μM, and 25 μM Ebselen were tested on M1619 melanoma cells as described above, except that the cells were cultured for 72 hours before proliferation was measured.
C. 3000 U/ml Catalase, 2 μl/well DMSO, 25 μM Ebselen, and 50 μM Ebselen were tested as described above except that the compounds were added 24 hours after M1619 cells were plated. After the addition of antioxidants, the cells were incubated for an additional 48 hours and cell proliferation was quantitated. […]

[2] = system: M1619 cells; experiment: Ferricytochrome c reduction (O2− generation) by M1619 cells; conditions: 160 μM ferricytochrome c; capsaicin 100 μM; dicumarol 250 μM pre-treatment 60 min; other inhibitors as
Description: Measurement of Reactive Oxygen Species. Superoxide (O2^−) generation was measured by the technique of superoxide dismutase (SOD) inhibitable reduction of ferricytochrome c, employing a modification allowing absorbance reading with an automatic enzyme immunoassay reader. See Friovich, I. in Handbook of Methods for Oxygen Radical Research (Greenwald, R. A., ed.), pp 121-122, CRC Press, Boca Raton, Fla., 1985; Pick, E. et al. J. Immunol. Methods 46:211-226 (1981). Confluent cells grown on 24-well plates were washed with DPBS, and incubated in 5% CO2/air at 37° C. with 160 μM ferricytochrome c in total volume of 550 μl of sodium bicarbonate-containing Krebs-Heinseleit buffer, or Hanks Balanced Salt Solution (HBSS), with and without copper-zinc SOD (1,000 units/ml). See Nozik-Grayck, et al., Am J. Physiol. 273 (17):L296-L304 (1997). The absorbance of each well was measured at 550 nm initially and 3-24 hours later using an ELx800 UV automated microplate reader (Biotek Instruments, Highland Park, Vt.). Monolayers were then washed with DPBS, and cell protein was measured using the BCA protein assay (Pierce). O2^− generation, normalized to cell protein, was computed from the Beer-Lambert relationship, as the quotient of SOD-inhibitable increase absorbance over time divided by the difference between the molar extinction coefficients for ferricytochrome c and ferrocytochrome c (ΔEM=2.1×10^4 M^−1 cm^−1). See Bashford, in Spectrophotometry & Spectrofluorimetry. A Practical Approach (Harris, D. A., and Bashford, C. L., eds) pp. 1-22, IRL Press, Washington, D.C., 1987; Friovich, I. in Handbook of Methods for Oxygen Radical Research (Greenwald, R. A., ed) pp 121-122, CRC Press, Boca Raton, Fla., 1985. […].
A. Capsaicin inhibits ferricytochrome c reduction. M1619 cells grown on 24-well plates were washed with DPBS, and incubated in 5% CO2/air at 37° C. with 160 μM ferricytochrome c in total volume of 550 μl of HBSS with or without the quinone analog capsaicin (100 μM final concentration) added in 5 μl/ml of ethanol. The absorbance of each well was measured at 550 nm initially and 3 hours later using an ELx800 UV automated microplate reader (Biotek Instruments, Highland Park, Vt.). The results are illustrated in FIG. 8A.
. […]. The results are illustrated in FIG. 9A.

[3] = system: breast carcinoma MDA-MB-453 cells; experiment: MTT proliferation assay, MDA-MB-453 breast carcinoma; conditions: Homo sapiens, MDA-MB-453; Ebselen 25 μM; 10% FBS; 72 hours; mean±SE vs FBS+DMSO control; read-out: Percent Growth Inhibition
Description: (§2) Measurement of Proliferation in Cell Cultures. […] This assay empirically distinguishes between dead and living cells.
as §1
(§3) Cells stimulated with 10% FBS were plated at a density of 50,000 cells per well. DMSO and antioxidants were added to cell wells at the indicated concentrations. […] Each value represents a mean of at least 4 experiments.

[4] = system: Melanoma M1585 cells; experiment: MTT proliferation assay, M1585 melanoma; conditions: Homo sapiens; Ebselen 25 μM; 10% FBS; 48 hours; mean±SE vs FBS+DMSO control; read-out: Percent Growth Inhibition
Description: as §2, §1, §3

[5] = system: NF-κB; experiment: EMSA of constitutive nuclear NF-κB DNA binding, M1619; conditions: 24 hours, catalase 3,000 U/ml, NAC 20 mM, Ebselen 25 μM, dicumarol 250 μM
Text: Electrophoretic Mobility Shift Assays (EMSAs). […] J. Respir.

[6] = system: Adeno-squamous lung carcinoma NCI-H596 cells; experiment: MTT proliferation assay, NCI-H596 lung carcinoma; conditions: Homo sapiens, NCI-H596; Ebselen 25 μM; 10% FBS; 48 hours; mean±SE vs FBS+DMSO control; read-out: Percent Growth Inhibition
Description: as §2, §1, §3

[7] = system: LNCaP.FGC prostate adenocarcinoma cells; experiment: MTT proliferation assay, LNCaP.FGC prostate adenocarcinoma; conditions: Homo sapiens; Ebselen 25 μM; 10% FBS; 48 hours; mean±SE vs FBS+DMSO control; read-out: Percent Growth Inhibition
Description: as §2, §1, §3

[8] = system: p65 component of NF-κB; experiment: Immunohistochemical localization of p65 in M1619 cells; conditions: 24 hours, catalase 3,000 U/ml, apocynin 150 μg/ml, dicumarol 250 μM
Description: The effect of antioxidants on nuclear activation of NF-κB was studied by incubating near confluent (70%) cell cultures with antioxidant treatments for 1-48 hours. Nuclear protein was harvested, and EMSAs were performed using DNA consensus binding sequences, or nuclear translocation of the p65 component of NF-κB was studied by immunoperoxidase staining, as outlined below.
Immunohistochemical Localization of NF-κB. Cells grown on sterile coverslips and treated with catalase 3,000 U/ml, apocynin 150 μg/ml, or DPBS or DMSO vehicles for 24 h were fixed for 20 min on ice with 4% paraformaldehyde in DPBS with protease inhibitors, PI [Sigma protease inhibitor cocktail, 10 μl/ml, containing 4-(2-aminoethyl)benzensulfonyl fluoride (AEBSF), pepstatin A, trans-epoxysuccinyl-L-leucylamindo-(guanidino)butane (E-64), bestatin, leupeptin and aprotinin]. Cells were permeabilized by treating for 2 min with 0.1% NP-40 in DPBS/PI, washed once with cold DPBS and fixed as before for 10 min. Coverslips were incubated in 3% hydrogen peroxide for 30 min to suppress any remaining peroxidase, and washed three times in cold DPBS. The permeabilized and fixed cells were blocked for 2 hours with 2% BSA in DPBS on ice and incubated overnight at 4° C. with 1 μg/ml of anti-p65 antibody (Santa Cruz) diluted in 0.1% BSA/DPBS. Unbound anti-p65 was washed away with 2% BSA/DPBS and bound antibody was stained by incubation with biotinylated goat anti-rabbit immunoglobulin diluted 1:50 in 0.1% BSA/DPBS for 45 min on ice. Excess secondary antibody was washed away by 3 washes with 2% BSA/DPBS on ice. After washing, the cells were incubated with a streptavidin-biotin-peroxidase complex at room temperature for 1 hr, washed again, and incubated in 0.03% wt/vol 3-3′diaminobenzidine with 0.003% vol/vol hydrogen peroxide until a brown reaction product could be seen. Cells were then counterstained with eosin and mounted on glass slides before viewing under light microscopy. […]

[9] = system: GRO-α; experiment: GRO-α ELISA in culture medium; conditions: M1619; dicumarol 24 hours
Description: To study the impact of inhibiting NF-κB activation with antioxidants, cellular expression of the autocrine growth factor GRO-α was studied in near confluent monolayers of M1619 cells grown in 24-well plates. Cells were either treated with fresh complete medium or fresh medium containing 25 μM ebselen. After 24 hours, supernatants were harvested, microcentrifuged to remove cellular debris and frozen at −20° C. until GRO-α measurement as outlined below.
Measurement of GRO-α Expression. GRO-α was measured in culture medium from untreated and ebselen treated cells using a commercial ELISA purchased from R&D Systems, Minneapolis, Minn. This assay could not be used to detect GRO-α production by catalase treated cells because of interference in the peroxidase-based ELISA by catalase in the cell supernatant.
[…]. After 24 hours, GRO-α concentration was measured in media.

Structure (SMILES)	Proliferation of M1619 melanoma cells (MTT, A540) [1]	ferricytochrome c reduction by M1619 cells [2]	other results
C=C(C)[C@H]1Cc2c(ccc3c2O[C@@H]2COc4cc(OC)c(OC)cc4[C@@H]2C3=O)O1 [retenone]	Neither cellular reduction of ferricytochrome c nor proliferation were reduced	Neither cellular reduction of ferricytochrome c nor proliferation were reduced	–
O=c1c2ccccc2[se]n1-c1ccccc1 [Ebselen, 2-phenyl-1,2-benzisoselenazol-3(2H)-one]	dramatically reduced	–	inhibition at 25 µM [3]: 69 ± 4%; inhibition at 25 µM [4]: 94 ± 2%; constitutive NF-κB DNA binding activity in nuclear protein [5]: substantially reduced; Proliferation of M1619 melanoma cells, agents added 24 hours after plating ([1]; catalase 3000 U/ml, Ebselen 25 and 50 μM, further 48 hours): antiproliferative; inhibition at 25 µM [6]: 57 ± 2%; inhibition at 25 µM [7]: 100%
CC(=O)N[C@@H](CS)C(=O)O [N-acetylcysteine]	reduced proliferation	–	–
c1ccc2c(c1)[I+]c1ccccc1-2 [diphenylene iodonium chloride]	significantly reduced proliferation	–	–
CN/C(=N/CCSCc1nc[nH]c1C)NC#N [cimetidine]	Neither cellular reduction of ferricytochrome c nor proliferation were reduced	Neither cellular reduction of ferricytochrome c nor proliferation were reduced	–
Oc1ncnc2[nH]ncc12 [allopurinol]	Neither cellular reduction of ferricytochrome c nor proliferation were reduced	Neither cellular reduction of ferricytochrome c nor proliferation were reduced	–
COc1ccc2c(c1)c(CC(=O)O)c(C)n2C(=O)c1ccc(Cl)cc1 [indomethacin]	Neither cellular reduction of ferricytochrome c nor proliferation were reduced	Neither cellular reduction of ferricytochrome c nor proliferation were reduced	–
COc1cc(C(C)=O)ccc1O [apocynin, 4′-hydroxy-3′-methoxy-acetophenone]	significantly reduced proliferation	–	anti-p65 staining in nuclei (nuclear translocation of NF-κB) [8]: little staining in nuclei
N=C(NCCC[C@H](N)C(=O)O)N[N+](=O)[O-] [ω-nitro-L-arginine, Nω-nitro-L-arginine]	Neither cellular reduction of ferricytochrome c nor proliferation were reduced	Neither cellular reduction of ferricytochrome c nor proliferation were reduced	–
COc1cc(CNC(=O)CCCC/C=C/C(C)C)ccc1O [capsaicin, 8-methyl-N-vanillyl-6-noneamide]	significantly reduced proliferation	significantly decreased	–
O=c1oc2ccccc2c(O)c1Cc1c(O)c2ccccc2oc1=O [Dicumarol, 3,3′-methylenebis[4-hydroxy-2H-1-benzopyran-2-one]]	–	significantly decreased	GRO-α protein expression [9]: dramatic reduction; anti-p65 staining in nuclei (nuclear translocation of NF-κB) [8]: little staining in nuclei
